According to ChEMBL document CHEMBL1146189, “Antiproliferation and apoptosis induced by C-glycosides in human leukemia cancer cells” (Bioorg Med Chem Lett, 2006):
Activity calls are given as the source filed them. No cut-off for these calls is given here.

Legend:
HL-60 [1] = assay: Antiproliferative activity against human HL60 cells by MTT assay; assay type: functional, cell-based
HL-60 [2] = assay: Induction of apoptosis in human HL60 cells; assay type: functional, cell-based
[3] = Homo sapiens, HL-60, read-out: IC50

Row | SMILES | IC50 (HL-60 [1]; hl-60) | IC50 (HL-60 [1]; [3]) [µM] | Activity (HL-60 [2])
1 | OC[C@H]1O[C@@H](Cc2ccccc2)[C@H](O)[C@@H](O)[C@@H]1O | Not Active |  | 
2 | CC1(C)OC[C@@H]2O[C@H](COCc3ccccc3)[C@@H](OCc3ccccc3)[C@H](OCc3ccccc3)[C@H]2O1 |  | 12.5 | Active
3 | CCC[C@@H]1O[C@H](CO)[C@@H](O)[C@H](O)[C@H]1O | Not Active |  | 
4 | CC(=O)OC[C@@H]1O[C@H](COCc2ccccc2)[C@@H](OCc2ccccc2)[C@H](OCc2ccccc2)[C@H]1OC(C)=O | Not Active |  | 
5 | c1ccc(COC[C@H]2OCC[C@@H](OCc3ccccc3)[C@@H]2OCc2ccccc2)cc1 |  | 39.3 | 
6 | CCCCOC[C@H]1O[C@@H](CCC)[C@H](O)[C@@H](OCCCC)[C@@H]1OCCCC | Not Active |  | 
7 | CC(=O)OC[C@@H]1O[C@H](COCc2ccccc2)[C@@H](OCc2ccccc2)[C@H](OCc2ccccc2)[C@H]1OCc1ccccc1 | Not Active |  | 
8 | CCCCCCCCCCCCCCCOC[C@H]1O[C@H](CCC)[C@H](O)[C@@H](OCCCCCCCCCCCCCCC)[C@@H]1OCCCCCCCCCCCCCCC | Not Active |  | 
9 | CC(=O)O[C@@H]1[C@@H](OCc2ccccc2)[C@H](OCc2ccccc2)[C@@H](COCc2ccccc2)O[C@H]1Cc1ccccc1 | Not Active |  | 
10 | O[C@@H]1[C@@H](OCc2ccccc2)[C@H](O)[C@@H](COCc2ccccc2)O[C@H]1Cc1ccccc1 |  | 35.3 | 
11 | O[C@@H]1[C@@H](OCc2ccccc2)[C@H](OCc2ccccc2)[C@@H](COCc2ccccc2)O[C@H]1Cc1ccccc1 |  | 8.7 | 
12 | CCC[C@@H]1O[C@H](COC)[C@@H](OC)[C@H](OC)[C@H]1O | Not Active |  | 
13 | O[C@@H]1[C@@H](O)[C@H](Cc2ccccc2)O[C@H](COCc2ccccc2)[C@H]1OCc1ccccc1 |  | 26.6 | 
14 | OC[C@H]1O[C@@H](Cc2ccccc2)[C@H](O)[C@@H](OCc2ccccc2)[C@@H]1O | Not Active |  | 
15 | O[C@@H]1[C@@H](OCc2ccccc2)[C@H](OCc2ccccc2)[C@@H](COCc2ccccc2)O[C@H]1c1ccccc1 |  | 26.3 | 
16 | OC[C@H]1O[C@@H](Cc2ccccc2)[C@H](O)[C@@H](O)[C@@H]1OCc1ccccc1 | Not Active |  | 
17 | O[C@@H]1[C@@H](OCc2ccccc2)[C@H](OCc2ccccc2)[C@@H](COCc2ccccc2)O[C@H]1CC1CCCCC1 |  | 4.1 | 
18 | O[C@@H]1[C@@H](OCc2ccccc2)[C@H](OCc2ccccc2)[C@@H](COCc2ccccc2)O[C@]12CCCO2 | Not Active |  | 
19 | O[C@@H]1[C@@H](OCc2ccccc2)[C@H](OCc2ccccc2)[C@@H](COCc2ccccc2)O[C@@H]1CC1CCCCC1 |  | 17.2 | 
20 | C=CC[C@@H]1O[C@H](COCc2ccccc2)[C@@H](OCc2ccccc2)[C@H](OCc2ccccc2)[C@H]1OC(C)=O |  | 26.9 | 
21 | C=CC[C@@H]1O[C@H](COCc2ccccc2)[C@@H](OCc2ccccc2)[C@H](OCc2ccccc2)C1=O |  | 31.8 | 
22 | CC(=O)O[C@@H]1[C@@H](OCc2ccccc2)[C@H](OCc2ccccc2)[C@@H](COCc2ccccc2)O[C@@H]1Cc1ccccc1 | Not Active |  | 
23 | O[C@@H]1[C@@H](OCc2ccccc2)[C@H](OCc2ccccc2)[C@@H](COCc2ccccc2)O[C@@]12CCCO2 | Not Active |  | 
24 | CC(=O)OC[C@H]1O[C@@H](Cc2ccccc2)[C@H](OC(C)=O)[C@@H](OC(C)=O)[C@@H]1OC(C)=O | Not Active |  | 
25 | O[C@@H]1[C@@H](OCc2ccccc2)[C@H](OCc2ccccc2)[C@@H](COCc2ccccc2)O[C@@H]1c1ccccc1 | Not Active |  | 
26 | O[C@@H]1[C@@H](OCc2ccccc2)[C@H](OCc2ccccc2)[C@@H](COCc2ccccc2)O[C@@H]1Cc1ccccc1 | Not Active |  | 
27 | O[C@@H]1[C@@H](O)[C@H](Cc2ccccc2)O[C@H](COCc2ccccc2)[C@H]1O | Not Active |  | 
28 | C=CC[C@@H]1O[C@H](COC(C)=O)[C@@H](OC(C)=O)[C@H](OC(C)=O)[C@H]1OC(C)=O | Not Active |  | 
29 | CCCCCCCCCCCCCCCOC[C@H]1O[C@@H](CCC)[C@H](O)[C@@H](OCCCCCCCCCCCCCCC)[C@@H]1OCCCCCCCCCCCCCCC | Not Active |  | 
30 | C=CC[C@@H]1O[C@H](CO)[C@@H](O)[C@H](O)[C@H]1O | Not Active |  | 

Second part, led by results:

Row | IC50 (HL-60 [1]; hl-60) | IC50 (HL-60 [1]; [3]) [µM] | SMILES | Activity (HL-60 [2])
31 | Not Active |  | CCCC[C@@H]1O[C@H](COCc2ccccc2)[C@@H](OCc2ccccc2)[C@H](OCc2ccccc2)[C@H]1O | 
32 |  | 19.3 | OCCC[C@@H]1O[C@H](COCc2ccccc2)[C@@H](OCc2ccccc2)[C@H](OCc2ccccc2)[C@H]1O | 
33 | Not Active |  | O[C@H]1CO[C@H](COCc2ccccc2)[C@@H](OCc2ccccc2)[C@@H]1OCc1ccccc1 | 
34 |  | 46.4 | ClC1(Cl)[C@@H]2[C@@H](OCc3ccccc3)[C@H](OCc3ccccc3)[C@@H](COCc3ccccc3)O[C@@H]21 | 
35 | Not Active |  | O[C@@H]1[C@@H](OCc2ccccc2)[C@H](OCc2ccccc2)[C@@H](COCc2ccccc2)O[C@H]1CC1CC1 | 
36 | Not Active |  | CCCC[C@H]1O[C@H](COCc2ccccc2)[C@@H](OCc2ccccc2)[C@H](OCc2ccccc2)[C@H]1O | 
37 |  | 28.2 | CCC[C@H]1O[C@H](COCc2ccccc2)[C@@H](OCc2ccccc2)[C@H](OCc2ccccc2)[C@H]1O | 
38 | Not Active |  | CC[C@H]1O[C@H](COCc2ccccc2)[C@@H](OCc2ccccc2)[C@H](OCc2ccccc2)[C@H]1O | 
39 | Not Active |  | CC(C)C[C@H]1O[C@H](COCc2ccccc2)[C@H](OCc2ccccc2)[C@H](OCc2ccccc2)[C@H]1O | 
40 | Not Active |  | C=C[C@H]1O[C@H](COCc2ccccc2)[C@@H](OCc2ccccc2)[C@H](OCc2ccccc2)[C@H]1O | 
41 | Not Active |  | CCCCC[C@@H]1O[C@H](COCc2ccccc2)[C@@H](OCc2ccccc2)[C@H](OCc2ccccc2)[C@H]1O | 
42 | Not Active |  | CCC[C@@H]1O[C@H](COCc2ccccc2)[C@H](OCc2ccccc2)[C@H](OCc2ccccc2)[C@H]1O | 
43 | Not Active |  | CCC[C@@H]1O[C@H](COCc2ccccc2)[C@@H](OCc2ccccc2)[C@H](OCc2ccccc2)[C@@H]1O | 
44 |  | 8.5 | CC(C)C[C@@H]1O[C@H](COCc2ccccc2)[C@@H](OCc2ccccc2)[C@H](OCc2ccccc2)[C@H]1O | Active
45 |  | 11.8 | C=C[C@@H]1O[C@H](COCc2ccccc2)[C@@H](OCc2ccccc2)[C@H](OCc2ccccc2)[C@H]1O | 
46 |  | 38.5 | c1ccc(COC[C@H]2O[C@@H]3C[C@@H]3[C@@H](OCc3ccccc3)[C@@H]2OCc2ccccc2)cc1 | 
47 | Not Active |  | CCC[C@H]1O[C@H](COCc2ccccc2)[C@H](OCc2ccccc2)[C@H](OCc2ccccc2)[C@H]1O | 

Row | IC50 (HL-60 [1]; hl-60) | IC50 (HL-60 [1]; [3]) [µM] | SMILES | Activity (HL-60 [2])
48 | Not Active |  | C[C@H]1O[C@H](COCc2ccccc2)[C@@H](OCc2ccccc2)[C@H](OCc2ccccc2)[C@H]1O | 
49 | Not Active |  | CC(C)C[C@H]1O[C@H](COCc2ccccc2)[C@@H](OCc2ccccc2)[C@H](OCc2ccccc2)[C@@H]1O | 
50 | Not Active |  | C=C[C@H]1O[C@H](COCc2ccccc2)[C@@H](OCc2ccccc2)[C@H](OCc2ccccc2)[C@H]1OC(C)=O | 
51 |  | 20.2 | OC[C@H]1O[C@@H](Cc2ccccc2)[C@H](O)[C@@H](OCc2ccccc2)[C@@H]1OCc1ccccc1 | 
52 | Not Active |  | C=CC[C@@H]1O[C@H](COCc2ccccc2)[C@@H](OCc2ccccc2)[C@H](OCc2ccccc2)C1O (single isomer, unassigned) | 
53 | Not Active |  | CC(C)(C)C[C@@H]1O[C@H](COCc2ccccc2)[C@@H](OCc2ccccc2)[C@H](OCc2ccccc2)[C@H]1O | 
54 |  | 11.7 | CCC[C@@H]1O[C@H](COCc2ccccc2)[C@@H](OCc2ccccc2)[C@H](OCc2ccccc2)[C@H]1O | 
55 |  | 12.1 | CC(C)(C)C[C@H]1O[C@H](COCc2ccccc2)[C@@H](OCc2ccccc2)[C@H](OCc2ccccc2)[C@H]1O | 
56 |  | 8.2 | CC[C@@H]1O[C@H](COCc2ccccc2)[C@@H](OCc2ccccc2)[C@H](OCc2ccccc2)[C@H]1O | Active
57 | Not Active |  | CCC[C@H]1O[C@H](COCc2ccccc2)[C@@H](OCc2ccccc2)[C@H](OCc2ccccc2)[C@@H]1O | 
58 |  | 13.9 | CC(C)C[C@H]1O[C@H](COCc2ccccc2)[C@@H](OCc2ccccc2)[C@H](OCc2ccccc2)[C@H]1O | 
59 | Not Active |  | CC(C)C[C@@H]1O[C@H](COCc2ccccc2)[C@@H](OCc2ccccc2)[C@H](OCc2ccccc2)[C@@H]1O | 
60 | Not Active |  | c1ccc(COC[C@H]2O[C@H]3C[C@H]3[C@@H](OCc3ccccc3)[C@@H]2OCc2ccccc2)cc1 | 
61 |  | 8.4 | C[C@@H]1O[C@H](COCc2ccccc2)[C@@H](OCc2ccccc2)[C@H](OCc2ccccc2)[C@H]1O | 
62 | Not Active |  | CC(C)C[C@@H]1O[C@H](COCc2ccccc2)[C@H](OCc2ccccc2)[C@H](OCc2ccccc2)[C@H]1O | 
63 | Not Active |  | C#CC[C@@H]1O[C@H](COCc2ccccc2)[C@@H](OCc2ccccc2)[C@H](OCc2ccccc2)[C@H]1O | 
64 |  | 15.1 | C=CC[C@@H]1O[C@H](COCc2ccccc2)[C@@H](OCc2ccccc2)[C@H](OCc2ccccc2)[C@H]1O | Active
